Laboratory results from patent US6635641B2 (Agouron Pharmaceuticals, Inc., priority 2000, dated 2003).
Read-outs that look alike come from different tables or passages of the source.

Key:
[1] = target: T1, unphosphorylated VEGF-R2Δ50 (FLVK) (Homo sapiens, UniProt P35968, DEL940-989/E990V); assay: VEGF-R2 coupled spectrophotometric assay, unphosphorylated construct (FLVK); assay type: biochemical;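 further: Baculovirus-expressed cytosolic kinase domain, ADP formation linked via pyruvate kinase and lactate dehydrogenase to NADH oxidation, read as falling absorbance at 340 nm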
T1 construct: VEGF-R2Δ50 contains residues 806-939 and 990-1171; made in house; host or cells: baculovirus/insect cells
T1 sequence (P35968 with tags, fused parts or gaps DEL940-989/E990V limits assumed): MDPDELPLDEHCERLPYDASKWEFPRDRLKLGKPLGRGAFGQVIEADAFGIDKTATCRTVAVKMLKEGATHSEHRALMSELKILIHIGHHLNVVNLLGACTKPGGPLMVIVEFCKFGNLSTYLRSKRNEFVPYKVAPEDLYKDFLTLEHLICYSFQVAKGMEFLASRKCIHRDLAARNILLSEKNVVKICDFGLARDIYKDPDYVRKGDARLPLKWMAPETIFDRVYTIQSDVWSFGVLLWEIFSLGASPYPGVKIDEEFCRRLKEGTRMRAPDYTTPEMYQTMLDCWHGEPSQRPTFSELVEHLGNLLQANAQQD

[2] = target: T2, FGF-R1 intracellular kinase domain (Homo sapiens, UniProt P11362, C488A/C584S/L457V); assay: FGF-R spectrophotometric assay; assay type: biochemical; conditions: for Ki: read-out: FGF-P Ki;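 on all read-outs here: coupled PK/LDH enzyme assay: ADP from kinase phosphoryl transfer drives NADH oxidation, read as absorbance decrease at 340 nm, with 2 mM ATP and poly(E4Y1) substrate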
T2 construct: starting from the endogenous methionine residue 456 to glutamate 766; made in house; host or cells: baculovirus expression system
T2 sequence (P11362 456-766 L457V/C488A/C584S): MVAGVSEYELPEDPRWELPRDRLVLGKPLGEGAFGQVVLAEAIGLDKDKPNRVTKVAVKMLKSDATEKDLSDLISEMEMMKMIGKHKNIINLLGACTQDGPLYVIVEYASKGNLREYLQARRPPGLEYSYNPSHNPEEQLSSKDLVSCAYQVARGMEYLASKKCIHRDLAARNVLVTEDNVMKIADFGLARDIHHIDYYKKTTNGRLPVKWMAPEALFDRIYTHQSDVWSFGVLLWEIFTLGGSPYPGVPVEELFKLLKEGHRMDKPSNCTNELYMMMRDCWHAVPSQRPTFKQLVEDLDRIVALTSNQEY
Description: The intracellular kinase domain of human FGF-R1 was expressed using the baculovirus vector expression system starting from the endogenous methionine residue 456 to glutamate 766, according to the residue numbering system of Mohammadi et al., Mol. Cell.
The production of ADP from ATP that accompanies phosphoryl transfer was coupled to oxidation of NADH using phosphoenolpyruvate (PEP) and a system having pyruvate kinase (PK) and lactic dehydrogenase (LDH). The oxidation of NADH was monitored by following the decrease of absorbance at 340 nm (e340=6.22 cm^−1 mM^−1) using a Beckman DU 650 spectrophotometer. […] Assays were initiated with 5 to 40 nM of enzyme. Ki values were determined by measuring enzyme activity in the presence of varying concentrations of test compounds. The data were analyzed using Enzyme Kinetic and Kaleidagraph software.
The spectrophotometric assay was carried out as described above for VEGF-R2, except for the following changes in concentration: FGF-R=50 nM, ATP=2 mM, and poly(E4Y1)=15 mM.

[3] = target: T3, LCK tyrosine kinase (Homo sapiens, UniProt P06239, C224D/P223M); assay: LCK spectrophotometric assay; assay type: biochemical; conditions: for Ki: read-out: LCK-P Ki;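 on all read-outs here: recombinant LCK kinase activity on poly(E4Y1), ADP formation coupled through PK/LDH to NADH oxidation, followed as absorbance loss at 340 nm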
T3 construct: starting from amino acid residue 223 to the end of the protein at residue 509; made in house; host or cells: insect cells
T3 sequence (P06239 223-509 P223M/C224D): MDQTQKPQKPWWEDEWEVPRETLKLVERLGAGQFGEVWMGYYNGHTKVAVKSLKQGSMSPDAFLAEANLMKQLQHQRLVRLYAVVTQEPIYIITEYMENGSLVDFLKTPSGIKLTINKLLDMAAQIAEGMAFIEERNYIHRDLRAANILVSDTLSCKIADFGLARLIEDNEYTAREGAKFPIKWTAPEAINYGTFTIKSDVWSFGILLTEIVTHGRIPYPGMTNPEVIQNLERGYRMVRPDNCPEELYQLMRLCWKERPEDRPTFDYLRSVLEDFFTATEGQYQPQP
Description: The production of ADP from ATP that accompanies phosphoryl transfer was coupled to oxidation of NADH using phosphoenolpyruvate (PEP) and a system having pyruvate kinase (PK) and lactic dehydrogenase (LDH). The oxidation of NADH was monitored by following the decrease of absorbance at 340 nm (e340=6.22 cm^−1 mM^−1) using a Beckman DU 650 spectrophotometer. Assay conditions for phosphorylated VEGF-R2Δ50 (indicated as FLVK-P in the tables below) were the following: 1 mM PEP; 250 μM NADH; 50 units of LDH/mL; 20 units of PK/mL; 5 mM DTT; 5.1 mM poly(E4Y1); 1 mM ATP; and 25 mM MgCl2 in 200 mM Hepes, pH 7.5. Assay conditions for unphosphorylated VEGF-R2Δ50 (indicated as FLVK in the tables) were the following: 1 mM PEP; 250 μM NADH; 50 units of LDH/mL; 20 units of PK/mL; 5 mM DTT; 20 mM poly(E4Y1); 3 mM ATP; and 60 mM MgCl2 and 2 mM MnCl2 in 200 mM Hepes, pH 7.5. Assays were initiated with 5 to 40 nM of enzyme. Ki values were determined by measuring enzyme activity in the presence of varying concentrations of test compounds. The data were analyzed using Enzyme Kinetic and Kaleidagraph software.

[4] = target: CDK2/Cyclin A complex (Homo sapiens, UniProt P24941); assay: CDK2/Cyclin A assay ([32P]ATP incorporation into Rb fragment); assay type: biochemical; conditions: read-out: CDK2 percent inhibition
Description: CDK2 was purified using published methodology (Rosenblatt et al., J. Mol. Biol., 230, 1317-1319 (1993)) from insect cells that had been infected with a baculovirus expression vector. Cyclin A was purified from E. coli cells expressing full-length recombinant cyclin A, and a truncated cyclin A construct was generated by limited proteolysis and purified as described previously (Jeffrey et al., Nature, 376, 313-320 (1995)).
Cyclin-dependent kinase activity was measured by quantifying the enzyme-catalyzed, time-dependent incorporation of radioactive phosphate from [^32P]ATP into a recombinant fragment of the retinoblastoma protein. Unless noted otherwise, assays were performed in 96-well plates in a total volume of 50 μL, in the presence of 10 mM HEPES (N-[2-hydroxyethyl]piperazine-N′-[2-ethanesulfonic acid]) (pH 7.4), 10 mM MgCl2, 25 μM adenosine triphosphate (ATP), 1 mg/mL ovalbumin, 5 μg/mL leupeptin, 1 mM dithiothreitol, 10 mM β-glycerophosphate, 0.1 mM sodium vanadate, 1 mM sodium fluoride, 2.5 mM ethylene glycol-bis(β-aminoethyl ether)-N,N,N′N′-tetraacetic acid (EGTA), 2% (v/v) dimethylsulfoxide, and 0.03-0.2 μCi [^32P]ATP. The substrate (0.3-0.5 μg) was purified recombinant retinoblastoma protein fragment (Rb) (residues 386-928 of the native retinoblastoma protein; 62.3 kDa, containing the majority of the phosphorylation sites found in the native 106-kDa protein, as well as a tag of six histidine residues for ease of purification). Reactions were initiated with CDK2 (150 nM CDK2/Cyclin A complex) or CDK4 (50 nM CDK4/Cyclin D3 complex), incubated at 30° C., and terminated after 20 minutes by the addition of ethylenediaminetetraacetic acid (EDTA) to 250 mM. The phosphorylated substrate was then captured on a nitrocellulose membrane using a 96-well filtration manifold, and unincorporated radioactivity was removed by repeated washing with 0.85% phosphoric acid. Radioactivity was quantified by exposing the dried nitrocellulose membranes to a phosphorimager. Apparent Ki values were measured by assaying enzyme activity in the presence of different compound concentrations and subtracting the background radioactivity measured in the absence of enzyme. The kinetic parameters (kcat, Km for ATP) were measured for each enzyme under the usual assay conditions by determining the dependence of initial rates on ATP concentration. The data were fit to an equation for competitive inhibition using Kaleidagraph (Synergy Software), or were fit to an equation for competitive tight-binding inhibition using the software KineTic (BioKin, Ltd.). Measured Ki values for known inhibitors against CDK4 and CDK2 agreed with published IC50 values. […]

[5] = target: T4, CDK4/Cyclin D3 complex (Homo sapiens, UniProt P11802); assay: CDK4/Cyclin D assay ([32P]ATP incorporation into Rb fragment); assay type: biochemical; conditions: read-out: CDK4 percent inhibition
T4 construct: made in house; host or cells: insect cells co-infected with baculovirus vectors
T4 sequence (P11802 whole entry, the tested form may be a part): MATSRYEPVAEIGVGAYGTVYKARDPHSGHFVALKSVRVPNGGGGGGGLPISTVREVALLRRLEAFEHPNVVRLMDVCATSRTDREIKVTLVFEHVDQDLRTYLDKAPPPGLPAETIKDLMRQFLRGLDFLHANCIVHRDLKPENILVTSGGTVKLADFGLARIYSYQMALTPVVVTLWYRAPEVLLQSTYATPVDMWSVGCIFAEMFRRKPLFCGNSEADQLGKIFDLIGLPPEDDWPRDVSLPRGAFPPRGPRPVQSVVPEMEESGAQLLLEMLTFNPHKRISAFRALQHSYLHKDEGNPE
T4 sequence (P30281 whole entry partner, the tested form may be a part): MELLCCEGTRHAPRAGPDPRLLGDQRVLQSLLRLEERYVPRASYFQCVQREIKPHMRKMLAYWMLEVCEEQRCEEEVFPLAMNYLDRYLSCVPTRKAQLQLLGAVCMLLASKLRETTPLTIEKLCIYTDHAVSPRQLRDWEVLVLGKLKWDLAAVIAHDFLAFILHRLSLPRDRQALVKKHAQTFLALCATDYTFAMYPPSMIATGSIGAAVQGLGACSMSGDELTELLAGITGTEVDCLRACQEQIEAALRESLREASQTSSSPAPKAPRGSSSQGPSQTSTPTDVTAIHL
Description: A complex of human CDK4 and cyclin D3, or a complex of cyclin D1 and a fusion protein of human CDK4 and glutathione-S-transferase (GST-CDK4), was purified using traditional biochemical chromatographic techniques from insect cells that had been co-infected with the corresponding baculovirus expression vectors.
Cyclin-dependent kinase activity was measured by quantifying the enzyme-catalyzed, time-dependent incorporation of radioactive phosphate from [^32P]ATP into a recombinant fragment of the retinoblastoma protein. Unless noted otherwise, assays were performed in 96-well plates in a total volume of 50 μL, in the presence of 10 mM HEPES (N-[2-hydroxyethyl]piperazine-N′-[2-ethanesulfonic acid]) (pH 7.4), 10 mM MgCl2, 25 μM adenosine triphosphate (ATP), 1 mg/mL ovalbumin, 5 μg/mL leupeptin, 1 mM dithiothreitol, 10 mM β-glycerophosphate, 0.1 mM sodium vanadate, 1 mM sodium fluoride, 2.5 mM ethylene glycol-bis(β-aminoethyl ether)-N,N,N′N′-tetraacetic acid (EGTA), 2% (v/v) dimethylsulfoxide, and 0.03-0.2 μCi [^32P]ATP. The substrate (0.3-0.5 μg) was purified recombinant retinoblastoma protein fragment (Rb) (residues 386-928 of the native retinoblastoma protein; 62.3 kDa, containing the majority of the phosphorylation sites found in the native 106-kDa protein, as well as a tag of six histidine residues for ease of purification). Reactions were initiated with CDK2 (150 nM CDK2/Cyclin A complex) or CDK4 (50 nM CDK4/Cyclin D3 complex), incubated at 30° C., and terminated after 20 minutes by the addition of ethylenediaminetetraacetic acid (EDTA) to 250 mM. The phosphorylated substrate was then captured on a nitrocellulose membrane using a 96-well filtration manifold, and unincorporated radioactivity was removed by repeated washing with 0.85% phosphoric acid. Radioactivity was quantified by exposing the dried nitrocellulose membranes to a phosphorimager. Apparent Ki values were measured by assaying enzyme activity in the presence of different compound concentrations and subtracting the background radioactivity measured in the absence of enzyme. The kinetic parameters (kcat, Km for ATP) were measured for each enzyme under the usual assay conditions by determining the dependence of initial rates on ATP concentration. The data were fit to an equation for competitive inhibition using Kaleidagraph (Synergy Software), or were fit to an equation for competitive tight-binding inhibition using the software KineTic (BioKin, Ltd.). Measured Ki values for known inhibitors against CDK4 and CDK2 agreed with published IC50 values. The specific activity of CDK4 was the same whether complexed to full-length cyclin D3 or the truncated Cyclin D3 construct; both complexes also yielded very similar Ki values for selected inhibitors.

[6] = tested on: human umbilical vein endothelial cells (HUVEC); assay: HUVEC proliferation assay (VEGF-stimulated, MTT); assay type: cell-based; conditions: Homo sapiens, HUVEC
In short: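 Proliferation measured by MTT reduction (4 h exposure, absorbance at 595) 72 hours after VEGF stimulation (final 6 ng/ml). Compound added to 24 h-starved HUVEC in F12K with 1% FBS and 0.1% final DMSO, one hour before the growth factor.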

[7] = tested on: lung cancer cells (line MV522); assay: Cancer cell proliferation (MV522) assay (MTT); assay type: cell-based; conditions: MV522
In short: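 Proliferation was read by MTT reduction 72 h after compound addition, in a 4-day protocol with no starvation step. Two thousand MV522 cells were seeded in RPMI1640 with 10% FBS and 2 mM glutamine and given 1 day to attach before dosing.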

[8] = with albumin, read-out: Huvec + Albumin IC50

## Cc1ccc2cc(NC(=O)c3cccc(SCc4cc(Nc5ccccc5)n[nH]4)c3)ccc2n1 [Example E-1, N-(2-methyl-quinolin-6-yl)-3-[{5-(phenylamino)-2-H-pyrazol-3-yl}methylsulfanyl]benzamide]
[1]
  Ki: 1.4 nM
[2]; at 5 μM, read-out: FGF-P percent inhibition
  inhibition at 5 µM: 36%
[3]; @ 5 μM, read-out: LCK-P percent inhibition
  inhibition at 5 µM: 85%
[4]; @ 100 μM
  inhibition at 100 µM: 23%
[5]; @ 100 μM
  inhibition at 100 µM: 40%
[6]; read-out: HUVEC IC50
  IC50: 170 nM
[6]; [8]
  IC50: > 1000 nM
[7]
  IC50: > 10000 nM

## O=C(Nc1ccc(N2CCCC2)c(C(F)(F)F)c1)c1cccc(CCc2cc(Nc3cccnc3)n[nH]2)c1 [Example G-11]
[1]
  Ki: 0.11 nM
[2]
  Ki: 19 nM
[3]
  Ki: 2.5 nM
[5]
  inhibition at 1 µM: 16%
[6]; read-out: HUVEC IC50
  IC50: 4.4 nM
[6]; [8]
  IC50: 64 nM
[7]
  IC50: 5600 nM

## Cc1cc(NC(=O)c2ccc(F)c(OCc3cncc4ccccc34)c2)ccc1C(C)C [Example K-10, N-(4-Isopropyl-3-methyl-phenyl)-4-fluoro-3-(Isoquinolin-4-yl)methoxy-benzamide]
[1]
  Ki: 0.23 nM
[2]
  Ki: 26 nM
[3]
  Ki: 57.7 nM
[4]
  inhibition at 1 µM: 12%
[5]
  inhibition at 1 µM: 17%
[6]; read-out: HUVEC IC50
  IC50: 12 nM
[7]
  IC50: 4600 nM

## CC(=O)Nc1ccc(COc2cccc(C(=O)Nc3ccc4nc(C)ccc4c3)c2)cn1 [Example N-1, 3-(6-Acetylaminopyridin-3-yl)methoxy-N-(2-methyl-quinolin-6-yl)-benzamide]
[1]
  Ki: 1.3 nM
[2]; @ 1 μM, read-out: FGF-P percent inhibition
  inhibition at 1 µM: 12%
[3]
  Ki: 160 nM
[4]
  inhibition at 1 µM: 18%
[5]
  inhibition at 1 µM: 19%
[6]; read-out: HUVEC IC50
  IC50: 38 nM
[6]; [8]
  IC50: > 1000 nM
[7]
  IC50: > 10000 nM
